According to patent US20070142392A1, “Uses of rifamycins” (ActivBiotics, Inc., priority 2005, published 2007):
≈ marks a conversion by molar mass, not a printed value. Where two headings read alike, the source gives them in different places.

Columns and labels:
E. coli = assay: MIC values, E. coli (Tables 1-4); assay type: cell-based
S. pneumo. = assay: MIC values, S. pneumo. (Tables 1-4); assay type: cell-based
S. aureus [1] = assay: MIC values, S. aureus (Tables 1-4); assay type: cell-based
H. flu = assay type: cell-based
E. faecalis = assay: MIC values, E. faecalis (Tables 1-4); assay type: cell-based; conditions: for MIC F. faecalis: Table 2
C. trachomatis = assay: MIC values, C. trachomatis (Table 2); assay type: cell-based
S. aureus ATCC29213 [2] = assay: MIC by broth dilution method; assay type: cell-based; conditions: S. aureus ATCC29213, inoculum 5×10^5 CFU/ml
Protocol: (§1) FIG. 2A is a schematic illustration showing the peak drug concentration of Compound 86 (1.13 μg/ml) in cage fluid from non-infected animals after single dose of 12.5 mg/kg. […] In this medium, bacterial counts remained stable in the absence of antibacterial agents for >36 hours.
(§2) In this medium, bacterial counts remained stable in the absence of antibacterial agents for >36 hours.
(§3) To understand the relative efficacy of peak drug concentration, it is compared to the minimal inhibitory concentration (MIC), the minimal bactericidal concentration for logarithmic phase growth (MBClog) and the MBCstat. […] The MBClog was defined as antimicrobial concentration that reduced the original inoculum by […] after 24 hour incubation (i.e. 3 log 10 CFU/ml), as described in the Manual of Clinical Microbiology. The MBCstat was determined as described in Example 1.

[3] = guinea pig, in vivo, ip
Excerpt: (§4) For pharmacokinetic studies, non-infected animals were used. […] Teflon tissue cages were implanted into the flanks of guinea pigs. For pharmacokinetic studies, non-infected animals were used.

S. aureus [4] = assay: Foreign-body (tissue cage) infection model, antimicrobial treatment; assay type: in vivo, guinea pigs; conditions: for Cure rate of removed cages: cages removed day 9; for Mean log10 CFU/ml ± SD in aspirated cage fluid, during treatment / no. culture negative/total no., cage fluid during treatment: day 4; for Mean log10 CFU/ml ± SD in aspirated cage fluid, after treatment / no. culture negative/total no., cage fluid after treatment: day 9
Protocol: For pharmacokinetic studies, non-infected animals were used. […] Antibiotics were administered intraperitoneally every 12 hours for four days (total eight doses). […] The cure rate is the fraction of cages in which the infection was eradicated. […] Following incubation, 50 μl of the TSB mixture was plated on blood agar plates to determine the presence of bacteria. A foreign-body infection model in guinea pigs was used for in vivo analysis of antimicrobials as described in Example 2, however in this example the animals were infected. […] Antibiotics were administered intraperitoneally every 12 hours for four days (total eight doses).

S. aureus ATCC29213 [5] = assay: minimal bactericidal concentration for logarithmic phase growth (MBClog); assay type: cell-based
Protocol: as §1, §2, §3

S. aureus [6] = assay: minimal bactericidal concentration in the stationary growth phase (MBCstat); assay type: cell-based; conditions: Staphylococcus aureus, 1% glucose PBS pH 7.4 with 4% Muller Hinton Broth
Protocol: as §1, §2
The minimal bactericidal concentration in the stationary growth phase (MBCstat) was determined by using overnight bacterial cultures which were centrifuged and resuspended in medium containing 1% glucose supplemented phosphate buffered saline (PBS) pH 7.4 with 4% Muller Hinton Broth (Zimmerli et al., J Antimicrob. Chemother. 33:959-967 (1994)). In this medium, bacterial counts remained stable in the absence of antibacterial agents for >36 hours.

in vivo = conditions: albino, guinea pig, ip
Excerpt: as §4

Row | Compound | MIC E. coli (E. coli) [ng/mL] | MIC S. pneumo. (S. pneumo.) [ng/mL] | MIC S. aureus (S. aureus [1]) [ng/mL] | MIC H. flu (H. flu) [ng/mL] | MIC F. faecalis (E. faecalis) [ng/mL] | MIC C. trachomatis (C. trachomatis) [ng/mL] | MBC (S. aureus [6]) [ng/mL] | further results
1 | CO[C@H]1/C=C/O[C@@]2(C)Oc3c(C)c(O)c4c(=O)c(c5oc6c7c(cc(O)c6nc-5c4c3C2=O)N(C)CCN7C)NC(=O)/C(C)=C\C=C\[C@H](C)[C@H](O)[C@@H](C)[C@@H](O)[C@@H](C)[C@H](OC(C)=O)[C@@H]1C [Compound 80] | 8000 (≈ 9040 nM) | 0.12 (≈ 0.136 nM) | 8 (≈ 9.04 nM) | 1000 (≈ 1130 nM) | 1000 (≈ 1130 nM) | 0.064 (≈ 0.0723 nM) |  | 
2 | CO[C@H]1/C=C/O[C@@]2(C)Oc3c(C)c(O)c4c(=O)c(c5oc6c7c(cc(O)c6nc-5c4c3C2=O)N(C)CCN7C)NC(=O)/C(C)=C\C=C\[C@H](C)[C@H](O)[C@@H](C)[C@@H](O)[C@@H](C)[C@H](O)[C@@H]1C [Compound 81] | 8000 (≈ 9490 nM) | 60 (≈ 71.2 nM) | 500 (≈ 593 nM) | 2000 (≈ 2370 nM) | 1000 (≈ 1190 nM) | 1 (≈ 1.19 nM) |  | 
3 | CO[C@H]1/C=C/O[C@@]2(C)Oc3c(C)c(O)c4c(=O)c(c5oc6c7c(cc(O)c6nc-5c4c3C2=O)N(C)CCCN7C)NC(=O)/C(C)=C\C=C\[C@H](C)[C@H](O)[C@@H](C)[C@@H](O)[C@@H](C)[C@H](OC(C)=O)[C@@H]1C [Compound 82] | >8000 | 8 (≈ 8.9 nM) | 60 (≈ 66.7 nM) | 2000 (≈ 2220 nM) | 4000 (≈ 4450 nM) | 0.064 (≈ 0.0712 nM) |  | 
4 | CO[C@H]1/C=C/O[C@@]2(C)Oc3c(C)c(O)c4c(=O)c(c5oc6c7c(cc(O)c6nc-5c4c3C2=O)N(C)CCCN7C)NC(=O)/C(C)=C\C=C\[C@H](C)[C@H](O)[C@@H](C)[C@@H](O)[C@@H](C)[C@H](O)[C@@H]1C [Compound 83] | >8000 | 0.12 (≈ 0.14 nM) | 120 (≈ 140 nM) | 2000 (≈ 2330 nM) | 1000 (≈ 1170 nM) | 1 (≈ 1.17 nM) |  | 
5 | CO[C@H]1/C=C/O[C@@]2(C)Oc3c(C)c(O)c4c(=O)c(c5oc6c7c(cc(O)c6nc-5c4c3C2=O)N(C(C)C)CCN7C(C)C)NC(=O)/C(C)=C\C=C\[C@H](C)[C@H](O)[C@@H](C)[C@@H](O)[C@@H](C)[C@H](OC(C)=O)[C@@H]1C [Compound 84] | >8000 | 8 (≈ 8.5 nM) | 60 (≈ 63.8 nM) | 2000 (≈ 2130 nM) | 4000 (≈ 4250 nM) | 10 (≈ 10.6 nM) |  | 
6 | CO[C@H]1/C=C/O[C@@]2(C)Oc3c(C)c(O)c4c(=O)c(c5oc6cc(N7CCN(C)CC7)cc(O)c6nc-5c4c3C2=O)NC(=O)/C(C)=C\C=C\[C@H](C)[C@H](O)[C@@H](C)[C@@H](O)[C@@H](C)[C@H](O)[C@@H]1C [Compound 86] | 4000 (≈ 4670 nM) | 0.12 (≈ 0.14 nM) | 2 (≈ 2.33 nM) | 250 (≈ 292 nM) |  |  |  | minimal inhibitory concentration (MIC) (S. aureus ATCC29213 [2]): 2 ng/mL (≈ 2.33 nM); Cmin ([3]; 3 mg/kg): 40 ± 10 ng/mL; Cmax (peak drug concentration) ([3]; 12.5 mg/kg): 1130 ng/mL; Cmin ([3]; 12.5 mg/kg): 140 ± 110 ng/mL; Tmax ([3]; 12.5 mg/kg): 8 h; MIC E. faecalis (E. faecalis): 15 ng/mL (≈ 17.5 nM); Cure rate of removed cages (S. aureus [4]; 3 mg/kg/12 h i.p.): 8% (1/12); Mean log10 CFU/ml ± SD in aspirated cage fluid, during treatment (S. aureus [4]; 3 mg/kg/12 h i.p.): 4.76 ± 0.51 log10 CFU/ml; no. culture negative/total no., cage fluid during treatment (S. aureus [4]; 3 mg/kg/12 h i.p.): 2/12; Mean log10 CFU/ml ± SD in aspirated cage fluid, after treatment (S. aureus [4]; 3 mg/kg/12 h i.p.): 2.77 ± 0.53 log10 CFU/ml; no. culture negative/total no., cage fluid after treatment (S. aureus [4]; 3 mg/kg/12 h i.p.): 4/12; Cure rate of removed cages (S. aureus [4]; 12.5 mg/kg/12 h i.p.): 58%; Cure rate of removed cages (S. aureus [4]; 12.5 mg/kg/12 h i.p., listed as Cpd 86): 58% (7/12); Mean log10 CFU/ml ± SD in aspirated cage fluid, during treatment (S. aureus [4]; 12.5 mg/kg/12 h i.p.): 3.24 ± 0.27 log10 CFU/ml; no. culture negative/total no., cage fluid during treatment (S. aureus [4]; 12.5 mg/kg/12 h i.p.): 5/12; Mean log10 CFU/ml ± SD in aspirated cage fluid, after treatment (S. aureus [4]; 12.5 mg/kg/12 h i.p.): 1.57 ± 0.53 log10 CFU/ml; no. culture negative/total no., cage fluid after treatment (S. aureus [4]; 12.5 mg/kg/12 h i.p.): 10/12; MBClog (S. aureus ATCC29213 [5]; 24 hour incubation): 0.008 μg/ml
7 | COC1C=COC2(C)Oc3c(C)c(O)c4c(=O)c(c5oc6cc(N7CC8CCCN(C(C)=O)C8C7)cc(O)c6nc-5c4c3C2=O)NC(=O)C(C)=CC=CC(C)C(O)C(C)C(O)C(C)C(O)C1C (centres unmarked) [Compound 150] | >8000 | 0.06 (≈ 0.0649 nM) | 4 (≈ 4.32 nM) | 500 (≈ 541 nM) |  |  |  | MIC E. faecalis (E. faecalis): 2000 ng/mL (≈ 2160 nM)
8 | CO[C@H]1/C=C/O[C@@]2(C)Oc3c(C)c(O)c4c(=O)c(c5oc6cc(N7CC8CCC(C7)N8C)cc(O)c6nc-5c4c3C2=O)NC(=O)/C(C)=C\C=C\[C@H](C)[C@H](O)[C@@H](C)[C@@H](O)[C@@H](C)[C@H](OC(C)=O)[C@@H]1C [Compound 151] |  |  |  |  |  |  | 156 (≈ 169 nM) | 
9 | CO[C@H]1/C=C/O[C@@]2(C)Oc3c(C)c(O)c4c(=O)c(c5oc6cc(N7CC(N(C)C)C7)cc(O)c6nc-5c4c3C2=O)NC(=O)/C(C)=C\C=C\[C@H](C)[C@H](O)[C@@H](C)[C@@H](O)[C@@H](C)[C@H](OC(C)=O)[C@@H]1C [Compound 152] |  |  |  |  |  |  | 469 (≈ 522 nM) | 
10 | C[C@H]1COc2c(N3CCN(C)CC3)c(F)cc3c(=O)c(C(=O)O)cn1c23 [Levofloxacin, levofloxacin] |  |  |  |  |  |  | 40000 (≈ 111000 nM) | Tmax (in vivo; 5 mg/kg): 2 h; concentration at 12 h (in vivo; 5 mg/kg): 10 ± 10 ng/mL
11 | CO[C@H]1/C=C/O[C@@]2(C)Oc3c(C)c(O)c4c(O)c(c(/C=N/N5CCN(C)CC5)c(O)c4c3C2=O)NC(=O)/C(C)=C\C=C\[C@H](C)[C@H](O)[C@@H](C)[C@@H](O)[C@@H](C)[C@H](OC(C)=O)[C@@H]1C [Rifampin, rifampin, reference compound] |  |  |  |  |  |  | 3600 (≈ 4370 nM) | AUC (in vivo; 12.5 mg/kg): 4560 ng·h/mL; Cmax (in vivo; 12.5 mg/kg): 980 ng/mL; Tmax (in vivo; 12.5 mg/kg): 2 h; concentration at 12 h (in vivo; 12.5 mg/kg): 140 ± 90 ng/mL; MIC (S. aureus ATCC29213 [2]; Staphylococcus aureus, read-out: minimal inhibitory concentration (MIC)): 16 ng/mL (≈ 19.4 nM); Tmax ([3]; 12.5 mg/kg): two; Mean log10 CFU/ml ± SD in aspirated cage fluid, during treatment (S. aureus [4]; 12.5 mg/kg/12 h i.p.): 3.68 ± 0.59 log10 CFU/ml; no. culture negative/total no., cage fluid during treatment (S. aureus [4]; 12.5 mg/kg/12 h i.p.): 11/24; Mean log10 CFU/ml ± SD in aspirated cage fluid, after treatment (S. aureus [4]; 12.5 mg/kg/12 h i.p.): 1.43 ± 0.28 log10 CFU/ml; no. culture negative/total no., cage fluid after treatment (S. aureus [4]; 12.5 mg/kg/12 h i.p.): 19/24; MBC (S. aureus ATCC29213 [5]; Staphylococcus aureus, ATCC29213, 24 hour incubation): 800 ng/mL (≈ 972 nM)
